Earlier results as cited in article PMC5673907 (Clinical and Translational Science, 2017).

Tested on: HDL inflammatory index
Conditions: simvastatin 40 mg daily

In the case of `CCC(C)(C)C(=O)O[C@H]1C[C@@H](C)C=C2C=C[C@H](C)[C@H](CC[C@@H]3C[C@@H](O)CC(=O)O3)[C@H]21` [simvastatin], the “Mean HII after statin” value is listed as “above 1.0 UR” and the “Drop in HII” value (6 weeks, statin-naive CHD/equivalent risk) is listed as 28%.
